Key:
heparanase = target: T1, heparanase (Pedobacter heparinus, UniProt Q59289); assay: Heparanase assay: biotin-HS digestion with heparanase with or without excess unlabeled HS; type: biochemical, bacterial; conditions: 50 fold (5 μg) excess of unlabeled HS
T1 construct: purchased Seikagaku
Experimental: Biotin-labeled HS from Example 1 was digested with heparanase, and the reaction containing undegraded and degraded HS was bound to in a biotin-binding plate (FIG. 1). Streptavidin, conjugated with an enzyme, was added to the binding plate. Quantitation of the color reaction measured the amount of available biotin binding sites. A decrease in color from a known amount reflects HS digestion by heparanase.
A lyophilized powder of heparanase (Heparanase III obtained from Seikagaku) containing 0.1 units of enzymatic activity was hydrated in 100 μl of Reaction Buffer (3.33 mM calcium acetate pH 7.0, containing 0.1 mg/ml BSA). This solution was then diluted to a working concentration of heparanase solution (0.01 micro-units to 1 milli-unit) in Reaction Buffer. Enzyme activity was defined by the manufacturer of the heparanase (Seikagaku) as follows: one unit of enzyme activity is defined as amount required to generate 1 μmole of hexuronic acid per minute. Biotin-HS was diluted to a desired concentration in Reaction Buffer.
To determine heparanase activity, 10 μl of heparanase solution was mixed with 200 μl of the biotin-HS substrate in a 96 well plate. The reaction was incubated at 43° C. for 1 hour. […] Color development in the wells was assessed by measuring the optical density at 450 nm in a microplate reader (Labsystems, Muliskan Ascent model). […]

biotin-HS = assay: Digestion of biotin-HS by enzymes, detected with streptavidin-enzyme conjugate; type: biochemical; conditions: protease in place of heparanase; FIG. 6

T1 sequence (Q59289 25-659): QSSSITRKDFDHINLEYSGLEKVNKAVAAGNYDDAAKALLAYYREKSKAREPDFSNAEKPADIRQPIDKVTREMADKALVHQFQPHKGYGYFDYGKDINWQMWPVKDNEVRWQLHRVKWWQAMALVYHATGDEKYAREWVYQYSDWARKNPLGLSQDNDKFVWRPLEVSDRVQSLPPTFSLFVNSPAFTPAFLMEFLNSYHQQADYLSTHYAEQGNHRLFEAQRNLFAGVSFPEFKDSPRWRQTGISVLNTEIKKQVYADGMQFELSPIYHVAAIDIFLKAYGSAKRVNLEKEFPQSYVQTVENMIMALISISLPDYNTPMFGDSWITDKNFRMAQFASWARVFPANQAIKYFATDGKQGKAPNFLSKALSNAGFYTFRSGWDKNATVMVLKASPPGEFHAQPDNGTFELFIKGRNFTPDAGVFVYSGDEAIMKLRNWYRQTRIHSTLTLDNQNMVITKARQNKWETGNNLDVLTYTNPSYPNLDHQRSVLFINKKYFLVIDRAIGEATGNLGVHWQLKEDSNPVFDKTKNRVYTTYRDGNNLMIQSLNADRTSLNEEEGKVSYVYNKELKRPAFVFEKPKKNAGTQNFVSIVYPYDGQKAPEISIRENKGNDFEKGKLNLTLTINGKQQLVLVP

Substance	Inhibition of heparanase activity toward biotin-HS (heparanase)	Activity leading to a decrease in the amount of biotin-HS detected by the assay (biotin-HS)
heparan sulfate [unlabeled HS]	approximately 60%	
trypsin		Neither protease tested (MMP or trypsin) demonstrated any activity
